From ChEMBL document CHEMBL1909046, “DrugMatrix in vitro pharmacology data”
pIC50, pKi: −log10 of the molar value.

Tests used:
[1] = target: Prostaglandin G/H synthase 1 (Homo sapiens, UniProt P23219); test: biochemical; format: tissue-based, Platelet; details: platelet;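 also: inhibition of COX-1 enzyme activity, with arachidonic acid supplied as substrate; in other assays of this panel Not Active means under 50% inhibition at 10 µM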
[2] = target: T1, Caspase-1 (Homo sapiens, UniProt P29466); design: species or system Escherichia coli;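 also: Caspase-1 enzyme inhibition assay with a peptide substrate; in other assays of this panel Not Active means under 50% inhibition at 10 µM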
T1 sequence (P29466 whole entry): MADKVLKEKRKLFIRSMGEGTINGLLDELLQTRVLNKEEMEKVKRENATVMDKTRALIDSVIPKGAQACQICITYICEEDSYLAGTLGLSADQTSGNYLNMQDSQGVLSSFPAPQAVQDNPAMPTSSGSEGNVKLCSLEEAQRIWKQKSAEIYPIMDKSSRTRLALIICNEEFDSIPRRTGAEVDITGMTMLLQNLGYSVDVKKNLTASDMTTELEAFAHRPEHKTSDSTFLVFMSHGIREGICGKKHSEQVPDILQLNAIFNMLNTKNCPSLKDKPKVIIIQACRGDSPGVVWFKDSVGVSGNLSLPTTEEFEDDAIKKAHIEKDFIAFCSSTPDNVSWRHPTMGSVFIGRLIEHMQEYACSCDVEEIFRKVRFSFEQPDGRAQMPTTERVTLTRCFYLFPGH

[3] = target: Kappa-type opioid receptor (Homo sapiens, UniProt P41145); test: DRUGMATRIX: Opiate kappa (OP2, KOP) radioligand binding (ligand: [3H] Diprenorphine); format: cell membranes, HEK293, Membrane; details: hek293; Not Active = under 50% inhibition at 10 µM
[4] = target: D(1A) dopamine receptor (Homo sapiens, UniProt P21728); test: DRUGMATRIX: Dopamine D1 radioligand binding (ligand: [3H] SCH-23390); format: cell membranes, CHO, Membrane; details: Not Active = under 50% inhibition at 10 µM; for IC50: cho
[5] = target: T2, Cytochrome P450 1A2 (Homo sapiens, UniProt P05177); details: bti-tn-5b1-4; also: in other assays of this panel Not Active means under 50% inhibition at 10 µM
T2 sequence (P05177 whole entry): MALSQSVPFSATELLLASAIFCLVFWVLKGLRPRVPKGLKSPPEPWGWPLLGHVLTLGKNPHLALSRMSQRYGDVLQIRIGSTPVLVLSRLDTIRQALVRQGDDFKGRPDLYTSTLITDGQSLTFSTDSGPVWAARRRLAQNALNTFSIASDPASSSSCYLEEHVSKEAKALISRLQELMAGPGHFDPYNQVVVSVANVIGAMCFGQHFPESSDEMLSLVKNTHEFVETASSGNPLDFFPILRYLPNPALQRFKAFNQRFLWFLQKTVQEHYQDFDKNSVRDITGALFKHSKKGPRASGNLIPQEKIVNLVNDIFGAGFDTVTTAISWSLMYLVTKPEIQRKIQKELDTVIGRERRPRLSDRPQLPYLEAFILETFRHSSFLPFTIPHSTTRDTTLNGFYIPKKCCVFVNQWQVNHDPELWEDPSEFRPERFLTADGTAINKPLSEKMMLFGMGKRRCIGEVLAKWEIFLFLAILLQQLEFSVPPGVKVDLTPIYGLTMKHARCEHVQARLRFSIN

[6] = target: C-C chemokine receptor type 5 (Homo sapiens, UniProt P51681); format: cell membranes, Membrane; details: hek293; also: in other assays of this panel Not Active means under 50% inhibition at 10 µM
[7] = target: T3, Cytochrome P450 2A6 (Homo sapiens, UniProt P11509); details: bti-tn-5b1-4; also: in other assays of this panel Not Active means under 50% inhibition at 10 µM
T3 sequence (P11509 whole entry): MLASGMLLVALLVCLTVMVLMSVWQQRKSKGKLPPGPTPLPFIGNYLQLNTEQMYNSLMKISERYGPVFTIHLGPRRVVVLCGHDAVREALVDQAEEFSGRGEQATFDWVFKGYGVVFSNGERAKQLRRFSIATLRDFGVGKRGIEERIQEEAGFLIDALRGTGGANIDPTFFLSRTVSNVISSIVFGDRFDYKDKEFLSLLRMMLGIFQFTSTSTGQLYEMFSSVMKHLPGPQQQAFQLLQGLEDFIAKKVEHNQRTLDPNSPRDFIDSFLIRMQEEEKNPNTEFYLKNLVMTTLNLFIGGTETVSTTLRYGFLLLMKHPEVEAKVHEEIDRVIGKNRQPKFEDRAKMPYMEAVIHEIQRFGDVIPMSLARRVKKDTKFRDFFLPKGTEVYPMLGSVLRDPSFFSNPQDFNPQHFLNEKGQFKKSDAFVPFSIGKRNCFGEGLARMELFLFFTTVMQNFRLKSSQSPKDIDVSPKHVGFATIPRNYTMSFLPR

Chain of C-C chemokine receptor type 5 (P51681 whole entry): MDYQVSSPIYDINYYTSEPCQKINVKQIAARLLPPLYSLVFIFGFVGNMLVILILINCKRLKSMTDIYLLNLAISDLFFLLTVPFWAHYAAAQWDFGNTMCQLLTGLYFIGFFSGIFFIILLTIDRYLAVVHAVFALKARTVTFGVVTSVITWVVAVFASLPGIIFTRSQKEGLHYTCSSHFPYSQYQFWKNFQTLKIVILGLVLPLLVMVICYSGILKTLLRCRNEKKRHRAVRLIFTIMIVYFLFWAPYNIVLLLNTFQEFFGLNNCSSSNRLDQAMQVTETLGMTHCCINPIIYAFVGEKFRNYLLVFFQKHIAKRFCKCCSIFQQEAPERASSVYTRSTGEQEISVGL
Chain of Kappa-type opioid receptor (P41145 whole entry): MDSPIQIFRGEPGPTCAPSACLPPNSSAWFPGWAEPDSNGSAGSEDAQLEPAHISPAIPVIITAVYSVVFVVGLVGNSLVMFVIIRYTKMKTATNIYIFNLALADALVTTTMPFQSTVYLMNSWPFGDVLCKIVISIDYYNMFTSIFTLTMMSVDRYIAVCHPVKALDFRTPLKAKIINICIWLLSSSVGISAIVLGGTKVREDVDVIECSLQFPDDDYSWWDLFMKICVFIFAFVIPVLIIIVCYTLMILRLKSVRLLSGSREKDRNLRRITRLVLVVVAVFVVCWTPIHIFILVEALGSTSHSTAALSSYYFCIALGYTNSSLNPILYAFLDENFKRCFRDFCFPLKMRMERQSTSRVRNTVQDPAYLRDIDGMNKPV
Chain of D(1A) dopamine receptor (P21728 whole entry): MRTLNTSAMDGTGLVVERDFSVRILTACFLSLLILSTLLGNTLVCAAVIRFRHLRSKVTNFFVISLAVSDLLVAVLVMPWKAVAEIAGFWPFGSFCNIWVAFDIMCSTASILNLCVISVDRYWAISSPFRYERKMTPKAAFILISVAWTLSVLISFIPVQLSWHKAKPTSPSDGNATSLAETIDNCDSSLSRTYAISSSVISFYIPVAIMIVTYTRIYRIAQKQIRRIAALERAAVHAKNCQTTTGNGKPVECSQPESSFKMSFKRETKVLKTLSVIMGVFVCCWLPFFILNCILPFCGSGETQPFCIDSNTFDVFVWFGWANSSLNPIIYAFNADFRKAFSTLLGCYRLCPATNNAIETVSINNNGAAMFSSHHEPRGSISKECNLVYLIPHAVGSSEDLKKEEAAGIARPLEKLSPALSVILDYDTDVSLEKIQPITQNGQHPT
Chain of Prostaglandin G/H synthase 1 (P23219 whole entry): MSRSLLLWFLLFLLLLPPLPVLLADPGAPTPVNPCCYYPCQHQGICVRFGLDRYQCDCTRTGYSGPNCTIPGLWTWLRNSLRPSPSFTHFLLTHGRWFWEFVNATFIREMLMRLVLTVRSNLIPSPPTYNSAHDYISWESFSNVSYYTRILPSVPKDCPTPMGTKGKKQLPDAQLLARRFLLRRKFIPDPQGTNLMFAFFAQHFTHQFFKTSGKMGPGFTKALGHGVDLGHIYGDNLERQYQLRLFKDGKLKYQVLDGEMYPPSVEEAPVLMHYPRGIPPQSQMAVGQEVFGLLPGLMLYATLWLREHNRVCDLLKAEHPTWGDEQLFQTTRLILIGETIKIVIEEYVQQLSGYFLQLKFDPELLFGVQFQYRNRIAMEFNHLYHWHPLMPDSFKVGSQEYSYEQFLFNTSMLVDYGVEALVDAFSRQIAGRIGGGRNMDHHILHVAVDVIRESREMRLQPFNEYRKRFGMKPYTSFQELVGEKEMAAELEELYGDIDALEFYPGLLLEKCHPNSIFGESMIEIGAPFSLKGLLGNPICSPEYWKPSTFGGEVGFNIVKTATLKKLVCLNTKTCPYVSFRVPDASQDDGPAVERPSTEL

`C[C@]12CC[C@@H]3c4ccc(O)cc4CC[C@H]3[C@@H]1C[C@@H](O)[C@@H]2O` [ESTRIOL] was tested. Which IC50 [1] did it give?
The IC50 was “Not Active”.

What about the IC50 [2] of the same compound?
The IC50 was “Not Active”.

And the IC50 [3]?
Its IC50 is “Not Active”.

What about the IC50 [4] of the same compound?
Its IC50 is “Not Active”.

And the IC50 [5]?
Its IC50 is “Not Active”.

What about the Ki [5] of the same compound?
Its Ki is “Not Active”.

What about the IC50 [6] of the same compound?
The IC50 was “Not Active”.

And the IC50 [7]?
Its IC50 is “Not Active”.

And the Ki [7]?
Its Ki is “Not Active”.

Which IC50 [1] does the source give for `O=C(O)P(=O)(O)O` [FOSCARNET] here?
The IC50 was “Not Active”.

What about the IC50 [2] of the same compound?
Its IC50 is “Not Active”.

What about the IC50 [3] of the same compound?
Its IC50 is “Not Active”.

What about the IC50 [4] of the same compound?
The IC50 was “Not Active”.

And the IC50 [5]?
Its IC50 is “Not Active”.

What about the Ki [5] of the same compound?
Its Ki is “Not Active”.

What about the IC50 [6] of the same compound?
The IC50 was “Not Active”.

And the IC50 [7]?
Its IC50 is “Not Active”.

And the Ki [7]?
The Ki was “Not Active”.

Which results are given for `CC1=NN(c2ccccc2)C(=O)C1` [EDARAVONE]?
IC50 [1]: Not Active; IC50 [2]: Not Active; IC50 [3]: Not Active; IC50 [4]: Not Active; IC50 [5]: Not Active; Ki [5]: Not Active; IC50 [6]: Not Active; IC50 [7]: Not Active; Ki [7]: Not Active

`CCCNC(C)C(=O)Nc1ccccc1C` (stereo not given) [PRILOCAINE] was tested. Which IC50 [1] did it give?
The IC50 was “Not Active”.

And the IC50 [2]?
The IC50 was “Not Active”.

And the IC50 [3]?
Its IC50 is “Not Active”.

What about the IC50 [4] of the same compound?
Its IC50 is “Not Active”.

What about the IC50 [5] of the same compound?
The IC50 was “Not Active”.

What about the Ki [5] of the same compound?
Its Ki is “Not Active”.

What about the IC50 [6] of the same compound?
The IC50 was “Not Active”.

And the IC50 [7]?
The IC50 was “Not Active”.

And the Ki [7]?
Its Ki is “Not Active”.

`C[C@H]1O[C@H](O[C@H]2[C@H](O)[C@@H](O)[C@@H](O[C@H]3[C@H](O)[C@@H](O)C(O)O[C@@H]3CO)O[C@@H]2CO)[C@H](O)[C@@H](O)[C@@H]1N[C@H]1C=C(CO)[C@@H](O)[C@H](O)[C@H]1O` (stereo not given in full) [ACARBOSE] was tested. Which IC50 [1] did it give?
Its IC50 is “Not Active”.

What about the IC50 [2] of the same compound?
Its IC50 is “Not Active”.

What about the IC50 [3] of the same compound?
The IC50 was “Not Active”.

What about the IC50 [4] of the same compound?
The IC50 was “Not Active”.

What about the IC50 [5] of the same compound?
Its IC50 is “Not Active”.

What about the Ki [5] of the same compound?
Its Ki is “Not Active”.

And the IC50 [6]?
Its IC50 is “Not Active”.

What about the IC50 [7] of the same compound?
The IC50 was “Not Active”.

And the Ki [7]?
The Ki was “Not Active”.

Which results are given for `CCc1ccc(CCOc2ccc(CC3SC(=O)NC3=O)cc2)nc1` (stereo not given) [PIOGLITAZONE]?
IC50 [1]: Not Active; IC50 [2]: Not Active; IC50 [3]: Not Active; IC50 [4]: Not Active; IC50 [5]: Not Active; Ki [5]: Not Active; IC50 [6]: Not Active; IC50 [7]: Not Active; Ki [7]: Not Active

How did the IC50 [1] turn out when `CN1CCN(C(c2ccccc2)c2ccccc2)CC1` [CYCLIZINE] was run?
Its IC50 is “Not Active”.

And the IC50 [2]?
Its IC50 is “Not Active”.

And the IC50 [3]?
The IC50 was “Not Active”.

What about the IC50 [4] of the same compound?
Its IC50 is “Not Active”.

What about the IC50 [5] of the same compound?
Its IC50 is “Not Active”.

What about the Ki [5] of the same compound?
The Ki was “Not Active”.

What about the IC50 [6] of the same compound?
The IC50 was “Not Active”.

And the IC50 [7]?
The IC50 was “Not Active”.

What about the Ki [7] of the same compound?
The Ki was “Not Active”.

How did the IC50 [1] turn out when `Cn1c(=O)c2c(ncn2C)n(C)c1=O` [CAFFEINE] was run?
Its IC50 is “Not Active”.

What about the IC50 [2] of the same compound?
The IC50 was “Not Active”.

What about the IC50 [3] of the same compound?
Its IC50 is “Not Active”.

What about the IC50 [4] of the same compound?
The IC50 was “Not Active”.

And the IC50 [5]?
Its IC50 is “Not Active”.

And the Ki [5]?
Its Ki is “Not Active”.

What about the IC50 [6] of the same compound?
Its IC50 is “Not Active”.

And the IC50 [7]?
The IC50 was “Not Active”.

What about the Ki [7] of the same compound?
Its Ki is “Not Active”.

For `COc1cc(OC)c(C(=O)CCCN2CCCC2)c(OC)c1` [BUFLOMEDIL], which IC50 [1] is on record?
The IC50 was “Not Active”.

And the IC50 [2]?
Its IC50 is “Not Active”.

What about the IC50 [3] of the same compound?
The IC50 was “Not Active”.

What about the IC50 [4] of the same compound?
The IC50 was “Not Active”.

And the IC50 [5]?
Its IC50 is “Not Active”.

What about the Ki [5] of the same compound?
Its Ki is “Not Active”.

And the IC50 [6]?
Its IC50 is “Not Active”.

What about the IC50 [7] of the same compound?
The IC50 was “Not Active”.

And the Ki [7]?
Its Ki is “Not Active”.

`CN1CCC(=C2c3ccccc3CC(=O)c3sccc32)CC1` [KETOTIFEN] was tested. Which IC50 [1] did it give?
Its IC50 is “Not Active”.

What about the IC50 [2] of the same compound?
Its IC50 is “Not Active”.

And the IC50 [3]?
The IC50 was “Not Active”.

What about the pIC50 ([4]; read-out: IC50) of the same compound?
Its pIC50 is 6.06.

And the pKi ([4]; read-out: Ki)?
Its pKi is 6.36.

And the IC50 [5]?
The IC50 was “Not Active”.

What about the Ki [5] of the same compound?
Its Ki is “Not Active”.

What about the IC50 [6] of the same compound?
The IC50 was “Not Active”.

And the IC50 [7]?
Its IC50 is “Not Active”.

What about the Ki [7] of the same compound?
The Ki was “Not Active”.

How did the IC50 [1] turn out when `NC(=O)N1c2ccccc2CC(=O)c2ccccc21` [OXCARBAZEPINE] was run?
Its IC50 is “Not Active”.

What about the IC50 [2] of the same compound?
The IC50 was “Not Active”.

What about the IC50 [3] of the same compound?
Its IC50 is “Not Active”.

What about the IC50 [4] of the same compound?
Its IC50 is “Not Active”.

And the IC50 [5]?
The IC50 was “Not Active”.

And the Ki [5]?
The Ki was “Not Active”.

What about the IC50 [6] of the same compound?
Its IC50 is “Not Active”.

What about the IC50 [7] of the same compound?
Its IC50 is “Not Active”.

What about the Ki [7] of the same compound?
Its Ki is “Not Active”.
